Patent US20260132103A1, “Bumetanide Derivatives for the Therapy of Stroke and Other Neurological Diseases/Disorders Involving NKCCs” (University of Pittsburgh - Of the Commonwealth System of …, priority 2018, published 2026)

Tests used:
[1] = tested on: GL26 and SB28-GFP cells; test: Rubidium uptake assay (Rb+ influx); format: cell-based, mouse
Description: FIGS. 4A-4B: Rb^+ influx was measured in GL26 and SB28-GFP cells in either isotonic (10 min) or hypertonic (5 min) solutions using ICR 8000 machine. (4A) Cells were exposed to isotonic or hypertonic solutions with BMT (10 μM) or STS66 (10 μM). (4B) Cells were exposed to isotonic or hypertonic solutions with different concentrations of STS66 (0 to 40 μM). Results are expressed as means±SEM from four independent experiments. **P<0.01, ***P<0.001, ****P<0.0001.
FIG. 5: GL26 cells and SB28-GFP cells were first exposed to BMT (10 μM) and different concentration of STS66 (10, 20 and 40 μM) for 48 h, and Rb^+ influx was measured in either isotonic (10 min) or hypertonic (5 min) solutions using ICR 8000 machine. Results are expressed as means±SEM from four independent experiments. *P<0.05, **P<0.01, ***P<0.001, ****P<0.0001.
GL26 and SB28-GFP cells were seeded in 24-well plates and the rubidium uptake assay was performed on cells that were 60% confluent. TMZ was added to cells for 48 hr incubation. The medium was then removed from the wells and washed with wash buffer (Rb^+ free). After wash buffer was aspirated, isotonic and hypertonic solutions (contain Rb^+) with BMT were added, and cells were incubated at 37° C. for 5 min. […] The Rb^+ concentration was measured using an automated atomic absorption spectrophotometer (Ion Channel Reader, ICR-8000; Aurora Biomed, Vancouver, Canada).

[2] = biological target: T1, pNKCC1 and tNKCC1 proteins (Mus musculus, UniProt P55012); test: Immunoblotting of pNKCC1 and tNKCC1; format: cell-based; conditions: GL26 and SB28-GFP cells, 6 h; BMT 10 μM, STS66 10 μM, TMZ 100 μM or combined
T1 construct: cell lysates were harvested for immunoblotting of pNKCC1 and tNKCC1 proteins; endogenous in cells; host or cells: GL26 and SB28-GFP mouse glioma cells
T1 sequence (P55012 1-1205): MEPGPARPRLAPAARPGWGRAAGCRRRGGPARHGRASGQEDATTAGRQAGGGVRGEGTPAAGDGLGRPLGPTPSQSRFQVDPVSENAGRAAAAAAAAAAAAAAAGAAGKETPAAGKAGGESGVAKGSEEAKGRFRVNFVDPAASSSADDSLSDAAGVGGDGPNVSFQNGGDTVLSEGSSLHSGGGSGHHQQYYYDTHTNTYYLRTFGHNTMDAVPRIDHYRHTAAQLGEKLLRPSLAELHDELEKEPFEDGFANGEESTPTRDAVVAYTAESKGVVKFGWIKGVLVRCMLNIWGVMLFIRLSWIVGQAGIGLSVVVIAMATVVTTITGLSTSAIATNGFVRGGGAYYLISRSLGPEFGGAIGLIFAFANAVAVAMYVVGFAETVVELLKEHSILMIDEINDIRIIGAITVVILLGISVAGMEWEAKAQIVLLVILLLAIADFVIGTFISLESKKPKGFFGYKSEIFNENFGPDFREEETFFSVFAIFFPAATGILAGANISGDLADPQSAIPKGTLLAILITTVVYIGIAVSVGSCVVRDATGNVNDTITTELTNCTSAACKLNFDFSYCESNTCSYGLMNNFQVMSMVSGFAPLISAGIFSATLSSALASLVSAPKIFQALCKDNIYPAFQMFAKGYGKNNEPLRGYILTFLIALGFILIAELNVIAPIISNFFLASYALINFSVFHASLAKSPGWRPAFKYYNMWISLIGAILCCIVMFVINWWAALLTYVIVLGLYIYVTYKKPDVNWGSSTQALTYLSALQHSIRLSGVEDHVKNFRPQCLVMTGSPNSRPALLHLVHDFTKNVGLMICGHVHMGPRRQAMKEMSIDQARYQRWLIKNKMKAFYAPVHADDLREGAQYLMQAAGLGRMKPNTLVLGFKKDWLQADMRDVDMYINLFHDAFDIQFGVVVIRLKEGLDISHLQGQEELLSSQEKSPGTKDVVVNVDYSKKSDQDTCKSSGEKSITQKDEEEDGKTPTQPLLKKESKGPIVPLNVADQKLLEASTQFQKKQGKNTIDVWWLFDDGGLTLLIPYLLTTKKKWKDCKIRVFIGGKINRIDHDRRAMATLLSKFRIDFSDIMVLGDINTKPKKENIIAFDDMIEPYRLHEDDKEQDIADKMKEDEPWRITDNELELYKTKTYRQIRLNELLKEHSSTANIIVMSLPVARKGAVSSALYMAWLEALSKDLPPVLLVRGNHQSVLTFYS
Description: FIGS. 6A-6B: GL26 and SB28-GFP cells were exposed to BMT (10 μM), STS66 (10 μM), TMZ (100 μM) or combined for 6 h and cell lysates were harvested for immunoblotting of pNKCC1 and tNKCC1 proteins. Data are means±SEM from six independent experiments. *P<0.05, **P<0.01, ***P<0.001.
GL26 and SB28-GFP cells were washed with ice-cold PBS and incubated in RIPA buffer containing 1 pill of phosSTOP and 2 mM protease inhibitors as described before (Algharabli et al. 2012). Cells were lysed by sonication at 4° C. Protein content of the cellular lysate was determined with BCA Protein Assay Kit. Samples and sample buffer (Thermo Scientific, Rockford, IL, USA) were boiled at 95° C. for 5 min. The samples were then electrophoretically separated on 10% SDS gels. After transferring to PVDF membranes, the blots were blocked in 10% nonfat dry milk in TBS-T (Tris-buffered saline, 0.05% Tween-20) for 1 hour at room temperature and then incubated with appropriate primary antibodies (pNKCC1, 1:300 and tNKCC1, 1:3000) at 4° C. overnight. After rinsing with TBS-T, the blots were incubated with horseradish peroxidase-conjugated secondary IgG (1:2000) for 1 hr at RT. Bound antibody was visualized with an enhanced chemiluminescence assay. Protein band signal intensities were analyzed using ImageJ and normalized to α-tubulin expression.

## CCCCNc1cc(CNCC(F)(F)F)cc(S(N)(=O)=O)c1Oc1ccccc1 [STS66, 3-(Butylamino)-2-phenoxy-5-[(2,2,2-trifluoroethylamino)methyl]benzenesulfonamide]
[1]; drugs incubated for 48 h, BMT 10 μM, STS66 10, 20 and 40 μM
  Rb+ influx inhibition, 48 h incubation: inhibited the Rb^+ influx better than BMT
[1]; drugs incubated for short time: isotonic (10 min) or hypertonic (5 min) solutions, STS66 0 to 40 μM
  Rb+ influx inhibition, short incubation: does not inhibit Rb^+ influx
[2]
  pNKCC1 and tNKCC1 expression: did not show significant decrease
